Drawing on ChEMBL document CHEMBL4483862, “Open-source discovery of chemical leads for next-generation chemoprotective antimalarials” (2018), this text covers IC50 and IC90 for 39 compounds.

This test concerns Plasmodium berghei. Briefly: Luciferase/luciferin-expressing antifolate-resistant parasites were used to infect a culture of HepG2 cells that were pre-incubated with compounds. Infected hepatocytes emit light due to the luciferase reaction. Assay results are presented as the percent inhibition of light emission compared to control. […]. The format is functional. The following applies: sporozoite; for IC90: read-out: LUCIFERASE INFECTION ASSAY - IC90.

[1] abbreviates: read-out: LUCIFERASE INFECTION ASSAY - IC50.

The structures appear in SMILES notation.

For orientation: IC50 means the point on the concentration scale where inhibition reaches its midpoint. A word on the IC90: it is the point of the concentration-response curve where the effect stands at 90%.

Regarding `Cc1occc1C(=O)NN=CC1C(=O)N(Cc2ccccc2)C(=O)c2ccccc21` (stereo not drawn), the IC90 turned out to be 7.7 µM. For the same compound, the IC50 (FFLUC_HILL_SLOPE 77.8, FFLUC_R_SQUARED 0.432, HEPG2TOX_HILL_SLOPE 1.95, HEPG2TOX_R_SQUARED 0.861, PBLUC_HILL_SLOPE 6.12, PBLUC_R_SQUARED 0.278, read-out: LUCIFERASE INFECTION ASSAY - IC50) came to 5.38 µM.

With `O=C(c1cnc(Nc2cccc(Oc3ccccc3)c2)[nH]1)c1ccccc1O`, the IC90 was 1.08 µM. The concentration for half-maximal inhibition (IC50) (HEPG2TOX_HILL_SLOPE 1.38, HEPG2TOX_R_SQUARED 0.947, PBLUC_HILL_SLOPE 15.8, PBLUC_R_SQUARED 0.824, read-out: LUCIFERASE INFECTION ASSAY - IC50) came to 0.938 µM.

Take `COc1c(Cl)cc(Br)c(OC)c1C(=O)NC(=O)Nc1cc(C(F)(F)F)cc(C(F)(F)F)c1`: the IC90 amounted to 2.27 µM. Further, the 50% inhibitory concentration (IC50) (FFLUC_HILL_SLOPE 14.8, FFLUC_R_SQUARED 0.569, HEPG2TOX_HILL_SLOPE 7.93, HEPG2TOX_R_SQUARED 0.303, PBLUC_HILL_SLOPE 13, PBLUC_R_SQUARED 0.4, read-out: LUCIFERASE INFECTION ASSAY - IC50) amounted to 1.92 µM.

On to `O=C(Nc1nc2c(-c3ccccc3)c(C(F)(F)F)sc2s1)c1ccc(Cl)cc1`, for which the 90% effect concentration (IC90) is > 7.52 µM. For the same compound, the IC50 (PBLUC_HILL_SLOPE 7.81, PBLUC_R_SQUARED 0.676, read-out: LUCIFERASE INFECTION ASSAY - IC50) came out at 6.32 µM.

As to `CCOc1ccc(Oc2ccc(S(=O)(=O)NC(C)c3ccncc3)cc2)cc1` (stereo not drawn), the concentration for an effect of 90% (IC90) is 4.85 µM. Further, the 50% inhibitory concentration (IC50) under setting [1] is 0.559 µM.

Regarding `FC(F)(F)Oc1ccc(-c2ccc(OCCCc3ccccn3)nc2)cc1`, the IC90 was > 8.82 µM. For the setting “HEPG2TOX_HILL_SLOPE 2.06, HEPG2TOX_R_SQUARED 0.963, PBLUC_HILL_SLOPE 4.51, PBLUC_R_SQUARED 0.157, read-out: LUCIFERASE INFECTION ASSAY - IC50”, the half-inhibitory concentration (IC50) was determined as 6.75 µM.

As to `CCOC(=O)c1sc(NC(=O)Nc2ccc([N+](=O)[O-])cc2)cc1C`, the 90% effect concentration (IC90) was 4.91 µM. For the same compound, the IC50 (HEPG2TOX_HILL_SLOPE 2.1, HEPG2TOX_R_SQUARED 0.922, PBLUC_HILL_SLOPE 2.24, PBLUC_R_SQUARED 0.786, read-out: LUCIFERASE INFECTION ASSAY - IC50) amounted to 1.84 µM.

On to `Cc1ccc2nc(NC(=O)c3cccc(Cl)c3)c(C(=O)NC3CCCC3)n2c1`, for which the 90% effect concentration (IC90) worked out at 1.47 µM. The IC50 (FFLUC_HILL_SLOPE 23.2, FFLUC_R_SQUARED 0.442, HEPG2TOX_HILL_SLOPE 1.26, HEPG2TOX_R_SQUARED 0.897, PBLUC_HILL_SLOPE 7.29, PBLUC_R_SQUARED 0.437, read-out: LUCIFERASE INFECTION ASSAY - IC50) came out at 1.09 µM.

Consider `CC(=O)NCCNC(=O)c1ccc(OCC2CCCO2)cc1` (stereo not drawn), for which the concentration for an effect of 90% (IC90) is > 2 µM. Moreover, the half-inhibitory concentration (IC50) under setting [1] was > 2 µM.

With `Clc1cccc(-c2nnc3ccc(-c4ccc(N5CCOCC5)cc4)cn23)c1`, the IC90 was > 10 µM. The IC50 (PBLUC_HILL_SLOPE 15.8, PBLUC_R_SQUARED 0.114, read-out: LUCIFERASE INFECTION ASSAY - IC50) is 9.72 µM.

In the case of `CC(C)(C)C(=O)COC(=O)c1ccc(-c2ccc(O)cc2)cc1`, the 90% effect concentration (IC90) was > 10 µM. Also, the half-inhibitory concentration (IC50) under setting [1] is > 10 µM.

Consider `COc1ccc(CSc2nnc(CSc3cccs3)n2C)cc1`, for which the IC90 was > 9.08 µM. Further, the IC50 under setting [1] is > 9.08 µM.

Consider `Cn1ccnc1Sc1cnc(SCC(=O)c2ccc(Cl)cc2)nc1-c1ccccc1`, for which the concentration for an effect of 90% (IC90) is > 7.28 µM. Further, the IC50 under setting [1] is > 7.28 µM.

Regarding `COC(=O)c1ccc(/C=C/C(=O)OCC(=O)C(C#N)=C2Nc3ccccc3N2)cc1`, the IC90 was > 10 µM. Further, the concentration for half-maximal inhibition (IC50) under setting [1] is > 10 µM.

Consider `CS(=O)(=O)c1ccc(Nc2cc3[nH]c(-c4cccc(C(F)(F)F)c4)cc3cn2)cc1`, for which the IC90 is 9.79 µM. Besides, the half-inhibitory concentration (IC50) (PBLUC_HILL_SLOPE 3.36, PBLUC_R_SQUARED 0.528, read-out: LUCIFERASE INFECTION ASSAY - IC50) came to 5.09 µM.

`Cc1c(C(=O)Nc2ncc(Cc3ccccc3)s2)[nH]c2c1C(=O)CC(C)(C)C2`: the concentration for an effect of 90% (IC90) was > 10 µM. Further, the half-maximal inhibitory concentration (IC50) under setting [1] was > 10 µM.

For the compound `C(=C(c1nc2ccccc2s1)c1nc2ccccc2s1)c1ccccn1`, the concentration for an effect of 90% (IC90) was > 10 µM. Under setting [1], the IC50 is > 10 µM.

Take `CC(C)(C)c1csc(-c2ccc(-n3cncn3)nc2)n1`: the IC90 is > 11.6 µM. Besides, under “HEPG2TOX_HILL_SLOPE 9.36, HEPG2TOX_R_SQUARED 0.478, read-out: LUCIFERASE INFECTION ASSAY - IC50”, the IC50 is > 11.6 µM.

As to `COC(=O)c1c(NC(C)=O)c2cc(NC(C)Cc3ccccc3F)cnc2n1CCC(C)C` (stereo not drawn), the IC90 was > 7.26 µM. For the same compound, the half-inhibitory concentration (IC50) under setting [1] is > 7.26 µM.

Turning to `Cc1ccc(C)c(S(=O)(=O)N2CCN(C(=O)c3[nH]nc4ccccc34)CC2)c1`, the IC90 came to 1.72 µM. Moreover, for the setting “PBLUC_HILL_SLOPE 2.18, PBLUC_R_SQUARED 0.737, read-out: LUCIFERASE INFECTION ASSAY - IC50”, the IC50 is 0.627 µM.

As to `COc1cc(/C=C/C(=O)c2ccc(Cl)c([N+](=O)[O-])c2)ccc1OC(F)F`, the concentration for an effect of 90% (IC90) was > 10 µM. Under setting [1], the IC50 was > 10 µM.

For the compound `Cc1[nH]nc2ccnc(-c3cccc(Cl)c3)c12`, the IC90 was > 10 µM. For the same compound, the IC50 (HEPG2TOX_HILL_SLOPE 7.21, HEPG2TOX_R_SQUARED 0.311, read-out: LUCIFERASE INFECTION ASSAY - IC50) was > 10 µM.

For `COC(=O)c1ccc2c(=O)nc(CSc3nnc(-c4ccccc4)c(-c4ccccc4)n3)[nH]c2c1`, the IC90 is > 10 µM. Further, the IC50 under setting [1] is > 10 µM.

With `CC(=O)N(c1nc(/C=C2\CCOc3ccc(F)cc3C2=O)cs1)c1cccc(C)c1C`, the IC90 is > 10 µM. The IC50 (FFLUC_HILL_SLOPE 1.6, FFLUC_R_SQUARED 0.338, PBLUC_HILL_SLOPE 1.6, PBLUC_R_SQUARED 0.162, read-out: LUCIFERASE INFECTION ASSAY - IC50) is > 10 µM.

For the compound `COc1ccc(-c2cnc3ccc(-c4cccc(C(F)(F)F)c4)nn23)cc1OC`, the 90% effect concentration (IC90) amounted to 9.93 µM. For the same compound, under “PBLUC_HILL_SLOPE 15.4, PBLUC_R_SQUARED 0.158, read-out: LUCIFERASE INFECTION ASSAY - IC50”, the IC50 was determined as 8.61 µM.

Consider `COc1ccc([N+](=O)[O-])cc1C(=O)NCCOc1ccc2ccccc2c1`, for which the 90% effect concentration (IC90) was > 10 µM. Also, under “PBLUC_HILL_SLOPE 24.5, PBLUC_R_SQUARED 0.535, read-out: LUCIFERASE INFECTION ASSAY - IC50”, the IC50 worked out at 9.5 µM.

For `CC(C)N1CCN(c2ccc(-c3cn4c(-c5ccc(O)cc5)cnc4cn3)cc2)CC1`, the concentration for an effect of 90% (IC90) was > 7.98 µM. For the setting “PBLUC_HILL_SLOPE 1.81, PBLUC_R_SQUARED 0.0513, read-out: LUCIFERASE INFECTION ASSAY - IC50”, the IC50 was > 7.98 µM.

As to `O=C(CSc1nnc(-c2ccccc2)[nH]1)N1c2ccccc2OCC1c1ccccc1` (stereo not drawn), the concentration for an effect of 90% (IC90) was > 10 µM. Besides, the half-maximal inhibitory concentration (IC50) (PBLUC_HILL_SLOPE 11.0, 1.31, PBLUC_R_SQUARED 0.138, 0.609, read-out: LUCIFERASE INFECTION ASSAY - IC50) was determined as 6.33 µM.

`O=C(NN=c1nc[nH]c2ccccc12)c1c(O)c(O)cc2ccccc12`: the IC90 was 1.34 µM. For the setting “HEPG2TOX_HILL_SLOPE 1.23, 1.37, HEPG2TOX_R_SQUARED 0.873, 0.334, PBLUC_HILL_SLOPE 12.1, 7.99, PBLUC_R_SQUARED 0.334, 0.684, read-out: LUCIFERASE INFECTION ASSAY - IC50”, the IC50 is 1.07 µM.

On to `Cc1c(S(=O)(=O)c2ccc(Cl)cc2)csc1S(=O)(=O)N1CCOCC1`, for which the 90% effect concentration (IC90) is > 7.82 µM. For the same compound, under setting [1], the half-inhibitory concentration (IC50) is > 7.82 µM.

As to `COc1ccc(C(C)(C)C)cc1NC(=O)C(=O)c1c(-c2ccccc2)cc2ccccn12`, the 90% effect concentration (IC90) came out at 8.89 µM. The half-inhibitory concentration (IC50) (PBLUC_HILL_SLOPE 2.71, PBLUC_R_SQUARED 0.442, read-out: LUCIFERASE INFECTION ASSAY - IC50) turned out to be 3.95 µM.

Consider `O=C(c1ccccc1)c1cc(-c2nc3ccccc3[nH]2)c(-c2ccccc2)n2c1nc1ccccc12`, for which the IC90 is > 10 µM. For the setting “FFLUC_HILL_SLOPE 3.37, FFLUC_R_SQUARED 0.587, PBLUC_HILL_SLOPE 3.5, PBLUC_R_SQUARED 0.455, read-out: LUCIFERASE INFECTION ASSAY - IC50”, the IC50 was 6.85 µM.

Turning to `O=c1nc(CN2CCN(c3ccc(C(F)(F)F)cn3)CC2)[nH]c2ccccc12`, the IC90 was > 10 µM. Besides, the IC50 under setting [1] was > 10 µM.

Take `COc1ccc(-c2cnc3cnc(-c4ccc(N5CCN(C)CC5)cc4)cn23)cn1`: the concentration for an effect of 90% (IC90) was > 8.24 µM. Also, the IC50 under setting [1] is > 8.24 µM.

For `CCCn1c(NC(=O)C2CC(=O)N(Cc3ccc(C)cc3)C2)nc2ccccc21` (stereo not drawn), the IC90 was > 10 µM. In addition, the half-maximal inhibitory concentration (IC50) under setting [1] is > 10 µM.

In the case of `Nc1c(C(=O)c2ccccc2O)cnn1-c1ccccc1C(F)(F)F`, the 90% effect concentration (IC90) amounted to 3.04 µM. Besides, under “FFLUC_HILL_SLOPE 18.9, FFLUC_R_SQUARED 0.573, PBLUC_HILL_SLOPE 1.34, PBLUC_R_SQUARED 0.647, read-out: LUCIFERASE INFECTION ASSAY - IC50”, the IC50 is 0.594 µM.

Take `Cc1ccn2cc(C(=O)N3CCN(Cc4ccc(C(F)(F)F)cc4)CC3)nc2c1`: the concentration for an effect of 90% (IC90) was determined as 3.77 µM. Besides, the IC50 (HEPG2TOX_HILL_SLOPE 2.22, HEPG2TOX_R_SQUARED 0.687, PBLUC_HILL_SLOPE 18.4, PBLUC_R_SQUARED 0.747, read-out: LUCIFERASE INFECTION ASSAY - IC50) came to 3.35 µM.

For `Clc1ccccc1CNc1ncnc2ccsc12`, the IC90 was > 10 µM. Also, the IC50 under setting [1] was > 10 µM.

In the case of `Cc1c(C)n(CC(C)C)c2ncnc(Nc3nccs3)c12`, the IC90 is > 10.9 µM. Under setting [1], the IC50 was > 10.9 µM.
